This experiment has as its target T1, BRAF V600E (Homo sapiens, UniProt P15056, V600E).
T1 construct: endogenous C-terminal HiBiT fusion tag on BRAF V600E allele; endogenous in cells; host or cells: A375 clone 1F10 (CRISPR-Cas9 knock-in of the HiBiT tag; parental A375 from ATCC)
Nature of the experiment: BRAF HiBiT degradation assay, C-terminal HiBiT-tagged BRAF V600E A375 cells (clone 1F10), Nano-Glo HiBiT Lytic assay. It counts as cell-based. Conditions: for Dmax: A-375. The method in brief:
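Steps: seed HiBiT-tagged A375 clone 1F10 cells; incubate 24 h, 37 °C, 5% CO2; add compound (11 half-log points from 1 μM, 0.2% DMSO); lyse with HiBiT detection reagent plus LgBiT for 10 min; read luminescence; fit % protein remaining against concentration.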

Where [1] appears, read: A375 (BRAF V600E), DC50 at 50%: fitted conc. at Y=50.
Where [2] appears, read: A375 (BRAF V600E), percentage protein degraded at maximal compound effect relative to DMSO.

Structures are written as SMILES.

T1 sequence (P15056 whole entry V600E, the tested form may be a part): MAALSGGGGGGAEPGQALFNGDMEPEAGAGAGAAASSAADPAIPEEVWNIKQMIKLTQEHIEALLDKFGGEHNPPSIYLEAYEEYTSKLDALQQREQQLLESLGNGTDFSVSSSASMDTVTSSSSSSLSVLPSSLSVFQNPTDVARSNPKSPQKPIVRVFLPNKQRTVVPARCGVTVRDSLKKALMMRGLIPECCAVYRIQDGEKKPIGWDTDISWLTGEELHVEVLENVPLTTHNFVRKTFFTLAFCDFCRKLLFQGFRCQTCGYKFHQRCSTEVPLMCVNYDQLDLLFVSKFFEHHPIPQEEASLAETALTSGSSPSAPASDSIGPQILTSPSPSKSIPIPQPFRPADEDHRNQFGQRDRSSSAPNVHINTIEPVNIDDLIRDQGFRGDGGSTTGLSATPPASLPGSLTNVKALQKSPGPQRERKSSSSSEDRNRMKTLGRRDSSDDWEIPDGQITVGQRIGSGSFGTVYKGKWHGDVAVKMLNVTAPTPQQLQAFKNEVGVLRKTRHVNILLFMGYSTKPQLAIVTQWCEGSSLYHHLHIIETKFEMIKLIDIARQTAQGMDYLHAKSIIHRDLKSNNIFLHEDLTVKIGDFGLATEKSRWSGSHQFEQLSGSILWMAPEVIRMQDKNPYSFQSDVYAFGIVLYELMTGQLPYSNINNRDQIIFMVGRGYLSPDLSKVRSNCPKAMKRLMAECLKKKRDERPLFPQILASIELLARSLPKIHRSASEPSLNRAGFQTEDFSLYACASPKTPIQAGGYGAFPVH

Under setting [1], `CCCS(=O)(=O)Nc1cccc(-c2nc(C(C)(C)C)sc2-c2ccnc(Nc3ccc(C4CCN(CC5CCN(c6ccc(C(=O)NC7CCC(=O)NC7=O)nc6)CC5)CC4)cc3)n2)c1F` (racemic) [Compound 169, Rac-5-{4-[(4-{4-[(4-{2-tert-butyl-4-[2-fluoro-3-(propane-1-sulfonamido)phenyl]-1,3-thiazol-5-yl}pyrimidin-2-yl)amino]phenyl}piperidin-1-yl)methyl]piperidin-1-yl}-N-[(3R)-2,6-dioxopiperidin-3-yl]pyridine-2-carboxamide] had a DC50 of 50 to 500 nM. Under setting [2], the maximal degradation (Dmax) is 30 to 70%.
Under setting [1], `CCCS(=O)(=O)Nc1cccc(-c2nc(C(C)(C)C)sc2-c2ccnc(Nc3ccc(C4CCN(C[C@H]5CC[C@H](Oc6ccc(C7CCC(=O)NC7=O)cn6)CC5)CC4)cc3)n2)c1F` (mixture of isomers) [Compound 168, N-{3-[2-tert-butyl-5-(2-{[4-(1-{[(1r,4r)-4-({5-[(3RS)-2,6-dioxopiperidin-3-yl]pyridin-2-yl}oxy)cyclohexyl]methyl}piperidin-4-yl)phenyl]amino}pyrimidin-4-yl)-1,3-thiazol-4-yl]-2-fluorophenyl}propane-1-sulfonamide] registered a DC50 of 10 to 50 nM. Moreover, under setting [2], the Dmax was over 70%.
As to `CCCS(=O)(=O)Nc1cccc(-c2nc(C(C)(C)C)sc2-c2ccnc(NCC3CCN(CC4CCN(c5ccc([C@H]6CCC(=O)NC6=O)cc5)CC4)CC3)n2)c1F` [Compound 145, N-[3-(2-tert-butyl-5-{2-[({1-[(1-{4-[(3R)-2,6-dioxopiperidin-3-yl]phenyl}piperidin-4-yl)methyl]piperidin-4-yl}methyl)amino]pyrimidin-4-yl}-1,3-thiazol-4-yl)-2-fluorophenyl]propane-1-sulfonamide], the 50% degradation concentration (DC50) under setting [1] was over 500 nM. For the same compound, the Dmax under setting [2] fell in the range of 30 to 70%.
For `CCCS(=O)(=O)Nc1cccc(-c2nc(C(C)(C)C)sc2-c2ccnc(NCC(C)(C)C3CCN(CC4CCN(c5ccc([C@H]6CCC(=O)NC6=O)cc5)CC4)CC3)n2)c1F` [Compound 144, N-[3-(2-tert-butyl-5-{2-[(2-{1-[(1-{4-[(3R)-2,6-dioxopiperidin-3-yl]phenyl}piperidin-4-yl)methyl]piperidin-4-yl}-2-methylpropyl)amino]pyrimidin-4-yl}-1,3-thiazol-4-yl)-2-fluorophenyl]propane-1-sulfonamide], in that order: 50 to 500 nM and 30 to 70%.
For `CCCS(=O)(=O)Nc1cccc(-c2nc(C3CCN(C(=O)CN4CCC5(CC4)CN(c4ccc6c(c4)C(=O)N(C4CCC(=O)NC4=O)C6=O)C5)CC3)sc2-c2ccnc(N)n2)c1F` (racemic) [Compound 239, Rac-N-{3-[5-(2-aminopyrimidin-4-yl)-2-{1-[2-(2-{2-[(3R)-2,6-dioxopiperidin-3-yl]-1,3-dioxo-2,3-dihydro-1H-isoindol-5-yl}-2,7-diazaspiro[3.5]nonan-7-yl)acetyl]piperidin-4-yl}-1,3-thiazol-4-yl]-2-fluorophenyl}propane-1-sulfonamide], in that order: under 10 nM and over 70%.
For `CCCS(=O)(=O)Nc1cccc(-c2nc(C(C)(C)C)sc2-c2ccnc(NC3CC4(C3)CN(CC3CCN(CC5CCN(c6ccc(C7CCC(=O)NC7=O)cc6)CC5)CC3)C4)n2)c1F` (racemic) [Compound 142, Rac-N-{3-[2-tert-butyl-5-(2-{[2-({1-[(1-{4-[(3R)-2,6-dioxopiperidin-3-yl]phenyl}piperidin-4-yl)methyl]piperidin-4-yl}methyl)-2-azaspiro[3.3]heptan-6-yl]amino}pyrimidin-4-yl)-1,3-thiazol-4-yl]-2-fluorophenyl}propane-1-sulfonamide], in that order: 50 to 500 nM and 30 to 70%.
Compound `CCCS(=O)(=O)Nc1cccc(-c2cn(-c3ccc(N4CCN(CC5CCN(c6ccc([C@@H]7CCC(=O)NC7=O)cn6)CC5)CC4)cc3)nc2-c2ccncc2)c1F` [Compound 1, N-{3-[1-(4-{4-[(1-{5-[(3S)-2,6-dioxopiperidin-3-yl]pyridin-2-yl}piperidin-4-yl)methyl]piperazin-1-yl}phenyl)-3-(pyridin-4-yl)-1H-pyrazol-4-yl]-2-fluorophenyl}propane-1-sulfonamide] registered a DC50 under setting [1] of 10 to 50 nM. Besides, the Dmax under setting [2] was over 70%.
With `O=C1CC[C@H](c2ccc(N3CCC(CN4CCN(c5cnc(-n6cc(-c7cc(F)cc(NS(=O)(=O)N8CCCC8)c7F)c(-c7ccncc7)n6)nc5)CC4)CC3)cc2)C(=O)N1` [Compound 342, N-{3-[1-(5-{4-[(1-{4-[(3R)-2,6-dioxopiperidin-3-yl]phenyl}piperidin-4-yl)methyl]piperazin-1-yl}pyrimidin-2-yl)-3-(pyridin-4-yl)-1H-pyrazol-4-yl]-2,5-difluorophenyl}pyrrolidine-1-sulfonamide], the DC50 (A375 (BRAF V600E, Class 1), DC50 at 50% degradation) was under 10 nM. Under “A375 (BRAF V600E, Class 1), observed Dmax, % protein degraded relative to DMSO control”, the Dmax was over 70%.
Compound `CCN(C)S(=O)(=O)Nc1cccc(-c2nc(C(C)(C)C)sc2-c2ccnc(Nc3ccc(N4CCN(C(=O)[C@H]5CC[C@H](CN6CCc7ccc(C8CCC(=O)NC8=O)cc7C6)CC5)CC4)cn3)n2)c1F` (mixture of isomers) [Compound 124, Rac-(3S)-3-(2-{[(1r,4r)-4-{4-[6-({4-[2-tert-butyl-4-(3-{[ethyl(methyl)sulfamoyl]amino}-2-fluorophenyl)-1,3-thiazol-5-yl]pyrimidin-2-yl}amino)pyridin-3-yl]piperazine-1-carbonyl}cyclohexyl]methyl}-1,2,3,4-tetrahydroisoquinolin-7-yl)piperidine-2,6-dione] showed a DC50 under setting [1] of 50 to 500 nM. The same compound yielded a Dmax under setting [2] of 30 to 70%.
Consider `CCCS(=O)(=O)Nc1cccc(-c2nc(C(C)(C)C)sc2-c2ccnc(Nc3cnn(C4CCN(C(=O)C[C@@H]5CCN(c6ccc(C7CCC(=O)NC7=O)cc6)C5)CC4)c3)n2)c1F` (mixture of isomers) [Compound 105, N-{3-[2-tert-butyl-5-(2-{[1-(1-{2-[(3S)-1-{4-[(3RS)-2,6-dioxopiperidin-3-yl]phenyl}pyrrolidin-3-yl]acetyl}piperidin-4-yl)-1H-pyrazol-4-yl]amino}pyrimidin-4-yl)-1,3-thiazol-4-yl]-2-fluorophenyl}propane-1-sulfonamide], for which the DC50 under setting [1] is over 500 nM. This compound also showed a Dmax under setting [2] of 30 to 70%.
For `CCCS(=O)(=O)Nc1cccc(-c2nc(C3CCN(C(=O)C4CN(C5CCN(c6ccc7c(c6)C(=O)N(C6CCC(=O)NC6=O)C7=O)CC5)C4)CC3)sc2-c2ccnc(N)n2)c1F` (racemic) [Compound 242, Rac-N-{3-[5-(2-aminopyrimidin-4-yl)-2-{1-[1-(1-{2-[(3R)-2,6-dioxopiperidin-3-yl]-1,3-dioxo-2,3-dihydro-1H-isoindol-5-yl}piperidin-4-yl)azetidine-3-carbonyl]piperidin-4-yl}-1,3-thiazol-4-yl]-2-fluorophenyl}propane-1-sulfonamide], under setting [1], the DC50 is under 10 nM. The compound further gave a maximal degradation (Dmax) under setting [2] of over 70%.
For `CCCS(=O)(=O)Nc1cccc(-c2nc(C3CCC4(CC3)CN(C(=O)CN3CCC5(CC3)CN(c3ccc6c(c3)C(=O)N(C3CCC(=O)NC3=O)C6=O)C5)C4)sc2-c2ccnc(N)n2)c1F` (racemic) [Compound 236, Rac-N-{3-[5-(2-aminopyrimidin-4-yl)-2-{2-[2-(2-{2-[(3R)-2,6-dioxopiperidin-3-yl]-1,3-dioxo-2,3-dihydro-1H-isoindol-5-yl}-2,7-diazaspiro[3.5]nonan-7-yl)acetyl]-2-azaspiro[3.5]nonan-7-yl}-1,3-thiazol-4-yl]-2-fluorophenyl}propane-1-sulfonamide], in that order: under 10 nM and over 70%.
`CCCS(=O)(=O)Nc1cccc(-c2nc(C)sc2-c2ccnc(Nc3ccc(C4CCN(CC5CCN(c6ccc([C@@H]7CCC(=O)NC7=O)cc6)CC5)CC4)cc3)n2)c1F` [Compound 64, N-[3-(5-{2-[(4-{1-[(1-{4-[(3S)-2,6-dioxopiperidin-3-yl]phenyl}piperidin-4-yl)methyl]piperidin-4-yl}phenyl)amino]pyrimidin-4-yl}-2-methyl-1,3-thiazol-4-yl)-2-fluorophenyl]propane-1-sulfonamide]: the 50% degradation concentration (DC50) under setting [1] was 10 to 50 nM. Besides, under setting [2], the Dmax was over 70%.
`CCCS(=O)(=O)Nc1cccc(-c2nc(C(C)(C)C)sc2-c2ccnc(NC3CC4(CCN(C(=O)CN5CCN(c6ccc7c(c6)C(=O)N(C6CCC(=O)NC6=O)C7=O)CC5)CC4)C3)n2)c1F` (racemic) [Compound 132, Rac-N-(3-{2-tert-butyl-5-[2-({7-[2-(4-{2-[(3R)-2,6-dioxopiperidin-3-yl]-1,3-dioxo-2,3-dihydro-1H-isoindol-5-yl}piperazin-1-yl)acetyl]-7-azaspiro[3.5]nonan-2-yl}amino)pyrimidin-4-yl]-1,3-thiazol-4-yl}-2-fluorophenyl)propane-1-sulfonamide] gave a DC50 under setting [1] of 10 to 50 nM. Moreover, the Dmax under setting [2] was 30 to 70%.
For `CCCS(=O)(=O)Nc1cccc(-c2nc(C(C)(C)C)sc2-c2ccnc(Nc3cccc(OC4CCN(C(=O)C[C@H]5CCN(c6ccc(C7CCC(=O)NC7=O)cc6)C5)CC4)c3)n2)c1F` (mixture of isomers) [Compound 91, N-(3-{2-tert-butyl-5-[2-({3-[(1-{2-[(3R)-1-{4-[(3RS)-2,6-dioxopiperidin-3-yl]phenyl}pyrrolidin-3-yl]acetyl}piperidin-4-yl)oxy]phenyl}amino)pyrimidin-4-yl]-1,3-thiazol-4-yl}-2-fluorophenyl)propane-1-sulfonamide], in that order: 50 to 500 nM and 30 to 70%.
